Like-named read-outs stand apart in the source and are kept apart here. Where a SMILES comes first, the peptide text is derived from it. Bridges are numbered along the chain shown (N, C = ends). [ ]: non-standard residue; d: D form. The star is where a group is joined. X1 = CC[C@H](C)CCCCC(=O)*; Dab = NCC[C@H](N)C(=O)O
Experiments:
Escherichia coli CCUG^T = test: microbe, parasite or virus in culture; format: cell-based; conditions: for Potentiation fold: ratio MICcompound/MICcompound+polymyxin E; for MIC in presence of colistin: with 0.25xMIC polymyxin E1 (0.12 mg/L); for MIC: Escherichia coli
Method: (§1) Growth inhibition or killing of bacteria was investigated using conventional methods widely described in the scientific literature. Parameters such as the Minimum Inhibitory Concentration (MIC) were determined as described in Clinical Laboratory Standard Institute (CLSI) document M07 “Methods for Dilution Antimicrobial Susceptibility Tests for Bacteria That Grow Aerobically, 11th Edition” (2018). Synergistic activity of the compounds described in the present specification were determined by measuring the variation of the MIC's compound in the absence and presence of a sub-inhibitory concentration of a suitable antibacterial agent, such as polymyxin E1. Furthermore, the Fractional Inhibitory Concentrations (FICs) were measured using a chequerboard analysis to determine the average FIC index (FICI), whose value is known to characterize the interaction between two compounds and/or drugs (≤0.5, synergistic interaction; >0.5 and <2, no interaction, additive effect; ≥2, antagonistic interaction). Furthermore, the selectivity of the compounds was investigated by measuring their cytotoxic effect on mammalian cell lines (e.g. HeLa cells).
(§2) Several methods were used to investigate the synergistic activity of the compounds, including (a) the determination of the MIC in the presence of a sub-inhibitory concentration of a suitable antibacterial agent, (b) the determination of the average FICI using a chequerboard analysis and (c) the time-kill curve analysis of a suitable agent (at a sub-inhibitory concentration) in the absence and presence of the pyrazolo[4,3-b]pyridin-6-carboxamide compound at a fixed concentration of 2 or 8 mg/L.
(§3) The MIC of the compound was determined alone and in the presence of a fixed and sub-inhibitory concentration of a suitable antibacterial agent of the polymyxin class, such as polymyxin E1 (colistin). The potentiation fold was computed as the ratio MICcompound/MICcompound+polymyxin E. Tested organisms included Escherichia coli CCUG^TKlebsiella pneumoniae ATCC 13833 and Acinetobacter baumannii ATCC 17978, which show a colistin MIC of 0.5, 0.5 and 1 mg/L, respectively.

[1] = tested on: Klebsiella pneumoniae ATCC 13833; test: microbe, parasite or virus in culture; format: cell-based; conditions: for Potentiation fold: ratio MICcompound/MICcompound+polymyxin E; for MIC in presence of colistin: with 0.25xMIC polymyxin E1 (0.12 mg/L); for MIC: Klebsiella pneumoniae, ATCC13833
Method: as §1, §2, §3

[2] = tested on: Acinetobacter baumannii ATCC 17978; test: microbe, parasite or virus in culture; format: cell-based; conditions: for Potentiation fold: ratio MICcompound/MICcompound+polymyxin E; for MIC in presence of colistin: with 0.25xMIC polymyxin E1 (0.25 mg/L); for MIC: Acinetobacter baumannii, ATCC17978
Method: as §1, §2, §3

[3] = tested on: Acinetobacter baumannii (N50 strain), multidrug-resistant clinical isolate resistant to polymyxin E1; test: Time-kill curve analysis (bactericidal activity); format: cell-based; conditions: polymyxin E1 2 mg/L alone; inoculum 10^5 CFU/mL
Method: FIG. 1: bactericidal activity on Acinetobacter baumannii (N50 strain) of polymyxin E1, 2 mg/L (square); polymyxin E1, 2 mg/L+compound Ib 32 mg/L (triangles); control (circles).
as §2
The kinetics of bacterial killing offers an additional mean to characterize the antibacterial activity of compounds, also in combination with other antimicrobial agents. Compounds or a combination thereof are defined as bactericides when the viable bacterial load is decreased by at least 3 log10 (EUCAST, cit.).
This analysis was carried with a multidrug-resistant Acinetobacter baumannii clinical isolate showing resistance to polymyxin E1. The time-kill curves were generated starting from a bacterial inoculum of 10^5 CFU/mL. Bacterial count was determined at several time intervals in the absence (control) or presence of 2 mg/L polymyxin E1 (corresponding to the resistance breakpoint, EUCAST, cit.) supplemented with 32 mg/L of compound Ib (FIG. 1).

[4] = tested on: polymyxin E1-resistant Acinetobacter baumannii (strain N50) clinical isolate; format: cell-based; conditions: A. baumannii N50; colistin alone
Method: as §1
“Chequerboard” method was used to further investigate the synergistic activity of pyrazolo[4,3-b]pyridin-6-carboxamides when this compounds are combined with polymyxin E1. […]

K. pneumoniae SI-4B = test: Chequerboard analysis with polymyxin E1 (average FIC index); format: cell-based, Klebsiella pneumoniae; conditions: K. pneumoniae SI-4B (colistin-resistant); compound + polymyxin E1
A. baumannii ATCC 17978 = test: as above; format: cell-based, Acinetobacter baumannii; conditions: compound + polymyxin E1
K. pneumoniae ATCC 13833 = test: as above; format: cell-based, Klebsiella pneumoniae; conditions: compound + polymyxin E1
[5] = tested on: Enterococcus faecalis ATCC 29212; test: MIC, broth microdilution (direct antibacterial activity); format: cell-based
Method: as §1
(§4) The MIC values were determined using the broth microdilution method as described in document M07 using Mueller-Hinton broth as culture medium and an initial bacterial inoculum size of 5×10^5 CFU/mL, with a final volume of 100 μL per well in a 96-well microplate. Bacterial strains were Bacillus subtilis ATCC 6633, Enterococcus faecalis ATCC 29212, Streptococcus pyogenes ATCC 12344 and Staphylococcus aureus ATCC 25923. The tested compound concentration ranged from 512 to 0.25 mg/L. Plates were incubated for 18-24 hours at 35±2° C. prior to results analysis.

[6] = tested on: Staphylococcus aureus ATCC 25923; test: as above; format: cell-based
Method: as §1, §4

[7] = tested on: Streptococcus pyogenes ATCC 12344; test: as above; format: cell-based
Method: as §1, §4

[8] = tested on: Bacillus subtilis ATCC 6633; test: as above; format: cell-based
Method: as §1, §4

E. coli CCUG^T = test: Chequerboard analysis with polymyxin E1 (average FIC index); format: cell-based, Escherichia coli; conditions: compound + polymyxin E1
[9] = E. coli CCUG^T, compound alone, read-out: MIC
[10] = K. pneumoniae ATCC 13833, compound alone, read-out: MIC
[11] = A. baumannii ATCC 17978, compound alone, read-out: MIC
[12] = ATCC29212, E. faecalis ATCC 29212, compound alone, 18-24 h, read-out: MIC
[13] = ATCC25923, S. aureus ATCC 25923, compound alone, 18-24 h, read-out: MIC
[14] = ATCC12344, S. pyogenes ATCC 12344, compound alone, 18-24 h, read-out: MIC
[15] = ATCC6633, B. subtilis ATCC 6633, compound alone, 18-24 h, read-out: MIC

| Structure (SMILES) | Potentiation fold (Escherichia coli CCUG^T; E. coli CCUG^T) | MIC in presence of colistin (Escherichia coli CCUG^T; E. coli CCUG^T) [µg/mL] | Potentiation fold ([1]; K. pneumoniae ATCC 13833) | MIC in presence of colistin ([1]; K. pneumoniae ATCC 13833) [µg/mL] | Potentiation fold ([2]; A. baumannii ATCC 17978) | MIC in presence of colistin ([2]; A. baumannii ATCC 17978) [µg/mL] | Average FIC index (K. pneumoniae ATCC 13833) | MIC (Escherichia coli CCUG^T; [9]) [µg/mL] | MIC [1, 10] [µg/mL] | MIC [2, 11] [µg/mL] | MIC [5, 12] [µg/mL] | MIC [6, 13] [µg/mL] | MIC [7, 14] [µg/mL] | MIC [8, 15] [µg/mL] | further results |
| --- | --- | --- | --- | --- | --- | --- | --- | --- | --- | --- | --- | --- | --- | --- | --- |
| CC[C@H](C)CCCCC(=O)N[C@@H](CCN)C(=O)N[C@H](C(=O)N[C@@H](CCN)C(=O)N[C@H]1CCNC(=O)[C@H]([C@@H](C)O)NC(=O)[C@H](CCN)NC(=O)[C@H](CCN)NC(=O)[C@H](CC(C)C)NC(=O)[C@@H](CC(C)C)NC(=O)[C@H](CCN)NC1=O)[C@@H](C)O [colistin, polymyxin E1, reference compound] (X1-[Dab]T[Dab][Dab][Dab][dL]L[Dab][Dab]T; lactam 4-C (inferred); N-terminus assumed) |  |  |  |  |  |  |  |  |  |  |  |  |  |  | colistin MIC (Escherichia coli CCUG^T; Escherichia coli CCUG^T, colistin alone): 0.5 µg/mL; colistin MIC ([1]; Klebsiella pneumoniae ATCC 13833, colistin alone): 0.5 µg/mL; colistin MIC ([2]; Acinetobacter baumannii ATCC 17978, colistin alone): 1 µg/mL; bactericidal activity (killing of the bacterial population) [3]: unable to achieve complete and irreversible killing of the bacterial population; MIC Colistin [4]: 8 µg/mL |
| CC(C)n1c(=O)c(C(=O)NC23CC4CC(CC(C4)C2)C3)c(O)c2nn(C)cc21 [Ix, N-(Adamantan-1-yl)-4,5-dihydro-7-hydroxy-2-methyl-5-oxo-4-(2-propyl)-2H-pyrazolo[4,3-b]pyridin-6-carboxamide] | ≥64 | 8 | ≥64 | 8 | ≥64 | 8 | 0.33 |  |  |  |  |  |  |  | MIC (Escherichia coli CCUG^T): > 512 µg/mL; MIC [1]: > 512 µg/mL; MIC [2]: > 512 µg/mL; Average FIC index (K. pneumoniae SI-4B): 0.39; Average FIC index (A. baumannii ATCC 17978): 0.27; MIC ([5]; ATCC29212): 32 µg/mL; MIC ([6]; ATCC25923): 128 µg/mL; MIC ([7]; ATCC12344): 32 µg/mL; MIC ([8]; ATCC6633): 64 µg/mL |
| CCCCCn1c(=O)c(C(=O)NC23CC4CC(CC(C4)C2)C3)c(O)c2nn(CCO)cc21 [In, N-(Adamantan-1-yl)-4,5-dihydro-7-hydroxy-2-(2-hydroxyethyl)-5-oxo-4-(1-pentyl)-2H-pyrazolo[4,3-b]pyridin-6-carboxamide] | ≥8 | 64 | ≥32 | 16 | ≥16 | 32 | 0.32 |  |  |  |  |  |  |  | MIC (Escherichia coli CCUG^T): > 512 µg/mL; MIC [1]: > 512 µg/mL; MIC [2]: > 512 µg/mL |
| CCCCn1c(=O)c(C(=O)NC2CCCc3ccccc32)c(O)c2nn(C)cc21 (stereo not drawn) [It, 4-(1-Butyl)-4,5-dihydro-7-hydroxy-2-methyl-5-oxo-N-(1,2,3,4-tetrahydro-1-naphthyl)-2H-pyrazolo[4,3-b]pyridin-6-carboxamide] | ≥16 | 32 | ≥32 | 16 | ≥32 | 16 |  | > 512 | > 512 | > 512 | 64 | 32 | 64 | 32 |  |
| CC(C)n1c(=O)c(C(=O)NC2CCCc3ccccc32)c(O)c2nn(C)cc21 (stereo not drawn) [Iaa, 4,5-Dihydro-7-hydroxy-2-methyl-5-oxo-4-(2-propyl)-N-(1,2,3,4-tetrahydro-1-naphthyl)-2H-pyrazolo[4,3-b]pyridin-6-carboxamide] | ≥32 | 16 | ≥16 | 32 | ≥32 | 16 |  | > 512 | > 512 | > 512 | 64 | 64 | 32 | 16 |  |
| CCCCn1c(=O)c(C(=O)Nc2ccc(F)cc2)c(O)c2nn(C)cc21 [Iae, 4-(1-Butyl)-4,5-dihydro-N-(4-fluorophenyl)-7-hydroxy-2-methyl-5-oxo-2H-pyrazolo[4,3-b]pyridin-6-carboxamide] | ≥2 | 256 | ≥2 | 256 | ≥16 | 32 |  | > 512 | > 512 | > 512 | 32 | 128 | 32 | 128 |  |
| CCCCn1c2c(c(O)c(C(=O)NC34CC5CC(CC(C5)C3)C4)c1=O)N(CCO)NC2 [Ip, N-(Adamantan-1-yl)-4-(1-butyl)-4,5-dihydro-7-hydroxy-1-(2-hydroxyethyl)-5-oxo-2H-pyrazolo[4,3-b]pyridin-6-carboxamide] | ≥16 | 32 | ≥32 | 16 | ≥16 | 32 | 0.32 | > 512 | > 512 | > 512 |  |  |  |  | Average FIC index (E. coli CCUG^T): 0.33 |

Reference: patent publication US12358919B2, “Antibacterial compounds” (Universita' degli Studi di Siena, priority 2019, dated 2025)
